Patent US12522588B2, “Herbicidal compounds” (SYNGENTA CROP PROTECTION AG, priority 2020, dated 2026)

Tests used:
Assay type in all cases: in vivo
Conditions in all cases: 250 g/ha
[1] = tested on: Abutilon theophrasti (ABUTH); test: Post-emergence test, glasshouse
Experimental: (§1) Seeds of a variety of test species are sown in standard soil in pots Amaranthus retoflexus (AMARE), Abutilon theophrasti (ABUTH), Setaria faberi (SETFA), Echinochloa crus-galli (ECHCG), Ipomoea hederacea (IPOHE)). After cultivation for one day (pre-emergence) or after 8 days cultivation (post-emergence) under controlled conditions in a glasshouse (at 24/16° C., day/night; 14 hours light; 65% humidity), the plants are sprayed with an aqueous spray solution derived from the formulation of the technical active ingredient in acetone/water (50:50) solution containing 0.5% Tween 20 (polyoxyethelyene sorbitan monolaurate, CAS RN 9005-64-5). Compounds are applied at 250 g/ha unless otherwise stated. The test plants are then grown in a glasshouse under controlled conditions in a glasshouse (at 24/16° C., day/night; 14 hours light; 65% humidity) and watered twice daily. After 13 days for pre and post-emergence, the test is evaluated for the percentage damage caused to the plant. The biological activities are shown in the following table on a five-point scale (5=81-100%; 4=61-80%; 3=41-60%; 2=21-40%; 1=0-20%).

[2] = tested on: Amaranthus retoflexus (AMARE); test: Post-emergence test, glasshouse
Experimental: as §1

[3] = tested on: Echinochloa crus-galli (ECHCG); test: Post-emergence test, glasshouse
Experimental: as §1

[4] = tested on: Ipomoea hederacea (IPOHE); test: Post-emergence test, glasshouse
Experimental: as §1

Setaria faberi (SETFA) [5] = test: Post-emergence test, glasshouse
Experimental: as §1

[6] = tested on: Abutilon theophrasti (ABUTH); test: Pre-emergence test, glasshouse
Experimental: as §1

[7] = tested on: Amaranthus retoflexus (AMARE); test: Pre-emergence test, glasshouse
Experimental: as §1

[8] = tested on: Echinochloa crus-galli (ECHCG); test: Pre-emergence test, glasshouse
Experimental: as §1

[9] = tested on: Ipomoea hederacea (IPOHE); test: Pre-emergence test, glasshouse
Experimental: as §1

Setaria faberi (SETFA) [10] = test: Pre-emergence test, glasshouse
Experimental: as §1

[11] = evaluated after 13 days, Table B1
[12] = evaluated after 13 days, Table B2

SMILES	percentage damage caused to the plant, ABUTH [1, 11]	percentage damage caused to the plant, AMARE [2, 11]	percentage damage caused to the plant, ECHCG [3, 11]	percentage damage caused to the plant, IPOHE [4, 11]	percentage damage caused to the plant, SETFA (Setaria faberi (SETFA) [5]; [11])	percentage damage caused to the plant, ABUTH [6, 12]	percentage damage caused to the plant, AMARE [7, 12]	percentage damage caused to the plant, ECHCG [8, 12]	percentage damage caused to the plant, IPOHE [9, 12]	percentage damage caused to the plant, SETFA (Setaria faberi (SETFA) [10]; [12])	percentage damage caused to the plant, ABUTH ([1]; comparative test)	percentage damage caused to the plant, AMARE ([2]; comparative test)	percentage damage caused to the plant, ECHCG ([3]; comparative test)	percentage damage caused to the plant, IPOHE ([4]; comparative test)	percentage damage caused to the plant, SETFA (Setaria faberi (SETFA) [5]; comparative test)	percentage damage caused to the plant, LABUTH ([6]; comparative test)	percentage damage caused to the plant, AMARE ([7]; comparative test)	percentage damage caused to the plant, ECHCG ([8]; comparative test)	percentage damage caused to the plant, IPOHE ([9]; comparative test)	percentage damage caused to the plant, SETFA (Setaria faberi (SETFA) [10]; comparative test)
FC(F)(F)c1cccc(-n2nc(C(F)(F)F)cc2Oc2ncc(Cl)cn2)c1 [Compound 1.003]	1 (1=0-20%)	5 (5=81-100%)	1 (1=0-20%)	2 (2=21-40%)	3 (3=41-60%)	1 (1=0-20%)	5 (5=81-100%)	2 (2=21-40%)	1 (1=0-20%)	5 (5=81-100%)										
Cc1cc(Oc2ncc(Cl)cn2)n(-c2ccc(Cl)cc2)n1 [Compound C2, reference compound]											1 (1=0-20%)	3 (3=41-60%)	2 (2=21-40%)	1 (1=0-20%)	2 (2=21-40%)	1 (1=0-20%)	1 (1=0-20%)	1 (1=0-20%)	1 (1=0-20%)	1 (1=0-20%)
